Measured values from the supplement of paper PMC10307832.

The cell lines below were run with CCOC(=O)CCNc1cc(N2CCc3ccccc3CC2)nc(-c2ccccn2)n1 [GSK-J4] + Cc1nc(NC(=O)N2CCC[C@H]2C(N)=O)sc1-c1ccnc(C(C)(C)C(F)(F)F)c1 [Alpelisib] (partner 2 µM) (assay: relative viability (nuclei count vs DMSO), 5 days (fraction); higher = more cells survive). Conditions: first compound 0.5 µM.
How it was run: (§1)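 Relative viability divides the nuclei count in treated wells by that in vehicle wells. Lung cancer cell lines were seeded in 1536-well plates, dosed by pin tool the next day, and fixed and stained after 5 days in one step with final 0.05% Triton X-100, 1% formaldehyde and 1 ug/ml Hoechst. Dosing was a single drug or a fixed anchor-drug dose plus five library-drug doses (not always all listed) in √10 steps, and values are medians of duplicate plates imaged at 4×.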

Cell Line	relative viability
NCI-H358	0.868
NCI-H322M	0.901
LC-2-ad	0.725
HCC-827	0.981
CAL-12T	1.12
HCC-15	0.909
HOP-62	0.956
NCI-H460	0.54
LU99A	0.448
NCI-H2085	0.894
A-427	1
NCI-H520	0.899
NCI-H838	1.02
NCI-H1792	0.708
NCI-H596	0.479
NCI-H3122	0.78

Cell Line	relative viability
BEN	1.04
NCI-H1395	1.03
201T	0.977
NCI-H1993	0.657
NCI-H1355	0.761
NCI-H2405	0.814
NCI-H1437	0.904
NCI-H661	0.727
COR-L 105	1.11
H3255	0.591
NCI-H2347	1.02
NCI-H1975	0.615
NCI-H441	0.741
NCI-H1915	0.972
NCI-H2087	0.988
NCI-H1793	0.79

Same assay, conditions: first compound 1.581 µM

Cell Line	relative viability
NCI-H358	0.639
NCI-H322M	0.718
LC-2-ad	0.764
HCC-827	1
CAL-12T	1.11
HCC-15	0.751
HOP-62	1.01
NCI-H460	0.377
LU99A	0.494
NCI-H2085	0.863
NCI-H520	0.781
NCI-H838	0.927
NCI-H1792	0.664
NCI-H596	0.503
NCI-H3122	0.634
BEN	0.882

Cell Line	relative viability
NCI-H1395	0.88
201T	0.831
NCI-H1993	0.643
NCI-H1355	0.741
NCI-H2405	0.619
NCI-H1437	0.979
NCI-H661	0.602
COR-L 105	0.99
H3255	0.64
NCI-H2347	0.659
NCI-H1975	0.613
NCI-H441	0.521
NCI-H1915	0.97
NCI-H2087	1.17
NCI-H1793	0.737

Same assay, conditions: first compound 5 µM

Cell Line	relative viability
NCI-H358	0.98
NCI-H322M	0.734
LC-2-ad	0.857
HCC-827	1.02
CAL-12T	1.43
HCC-15	0.912
HOP-62	1.12
NCI-H460	0.554
LU99A	0.535
NCI-H2085	0.888
A-427	1.17
NCI-H520	1.2
NCI-H1792	0.734
NCI-H596	0.525
NCI-H3122	0.95
NCI-H1395	0.845
201T	1.02
NCI-H1993	0.702
NCI-H1355	0.857
NCI-H1437	0.908
NCI-H661	0.578
COR-L 105	1.07
H3255	0.614
NCI-H2347	0.933
NCI-H441	0.475
NCI-H1915	1.04
NCI-H1793	0.715

Same assay, conditions: first compound 15.81 µM

Cell Line	relative viability
NCI-H358	0.876
NCI-H322M	0.747
LC-2-ad	0.877
HCC-827	0.915
CAL-12T	1.29
HCC-15	0.868
HOP-62	0.912
NCI-H460	0.456
LU99A	0.498
NCI-H2085	0.898
A-427	1.08
NCI-H520	0.868
NCI-H838	0.962
NCI-H1792	0.575
NCI-H596	0.457
NCI-H3122	0.716

Cell Line	relative viability
BEN	0.974
NCI-H1395	1.14
201T	0.988
NCI-H1993	0.667
NCI-H1355	0.762
NCI-H2405	0.897
NCI-H1437	0.873
NCI-H661	0.5
COR-L 105	0.912
H3255	0.593
NCI-H2347	1.05
NCI-H1975	0.678
NCI-H441	0.736
NCI-H1915	0.99
NCI-H2087	0.933
NCI-H1793	0.602

Same assay, conditions: first compound 50 µM

Cell Line	relative viability
NCI-H358	0.773
NCI-H322M	0.733
LC-2-ad	0.87
HCC-827	0.939
CAL-12T	1.29
HCC-15	0.571
HOP-62	0.859
NCI-H460	0.433
LU99A	0.322
NCI-H2085	0.789
A-427	0.561
NCI-H520	0.834
NCI-H838	0.905
NCI-H1792	0.837
NCI-H596	0.477
NCI-H3122	0.674

Cell Line	relative viability
BEN	0.948
NCI-H1395	0.821
201T	0.9
NCI-H1993	0.621
NCI-H1355	0.757
NCI-H2405	0.935
NCI-H1437	0.428
NCI-H661	0.53
COR-L 105	1.16
H3255	0.531
NCI-H2347	0.722
NCI-H1975	0.837
NCI-H441	0.57
NCI-H1915	1.01
NCI-H2087	0.745
NCI-H1793	0.275

The cell lines below were run with CN1CCC(CC1)OC2=CC(=C(C=C2)NC3=NC=C4C(=N3)N(C(=O)N4C)C5CCCC5)OC [AZ3146] + CC(=O)Nc1cccc(-n2c(=O)n(C3CC3)c(=O)c3c(Nc4ccc(I)cc4F)n(C)c(=O)c(C)c32)c1 [Trametinib] (partner 0.02 µM) in the same assay as above. Conditions: first compound 0.08 µM.
How it was run: as §1

Cell Line	relative viability
NCI-H358	0.162
NCI-H322M	0.555
LC-2-ad	0.858
HCC-827	0.63
CAL-12T	0.46
HCC-15	0.421
HOP-62	0.451
NCI-H460	0.132
NCI-H2085	0.495
A-427	0.76
NCI-H520	0.643
NCI-H838	0.553
NCI-H1792	0.37
NCI-H596	0.806
NCI-H3122	0.245
NCI-H1395	0.999
201T	0.718
NCI-H1993	0.562
NCI-H1355	0.441
NCI-H2405	0.731
NCI-H1437	0.445
NCI-H661	0.588
COR-L 105	0.471
H3255	0.649
NCI-H2347	0.295
NCI-H1975	0.315
NCI-H441	0.512
NCI-H1915	0.312
NCI-H2087	0.201
NCI-H1793	0.374

Same assay, conditions: first compound 0.253 µM

Cell Line	relative viability
NCI-H358	0.123
NCI-H322M	0.45
LC-2-ad	0.928
HCC-827	0.498
CAL-12T	0.304
HCC-15	0.346
HOP-62	0.354
NCI-H460	0.134
LU99A	0.501
NCI-H2085	0.57
A-427	0.753
NCI-H520	0.691
NCI-H838	0.467
NCI-H1792	0.38
NCI-H596	0.643
NCI-H3122	0.228

Cell Line	relative viability
BEN	1
NCI-H1395	1.08
201T	0.728
NCI-H1993	0.508
NCI-H1355	0.429
NCI-H2405	0.537
NCI-H1437	0.48
NCI-H661	0.519
COR-L 105	0.414
H3255	0.57
NCI-H2347	0.308
NCI-H1975	0.351
NCI-H441	0.438
NCI-H1915	0.303
NCI-H2087	0.196
NCI-H1793	0.419

Same assay, conditions: first compound 0.8 µM

Cell Line	relative viability
NCI-H358	0.139
NCI-H322M	0.435
LC-2-ad	0.928
HCC-827	0.481
CAL-12T	0.321
HCC-15	0.357
HOP-62	0.325
NCI-H460	0.0913
LU99A	0.567
NCI-H2085	0.506
A-427	0.747
NCI-H520	0.54
NCI-H838	0.462
NCI-H1792	0.415
NCI-H596	0.766
NCI-H3122	0.224

Cell Line	relative viability
BEN	1.05
201T	0.73
NCI-H1993	0.472
NCI-H1355	0.435
NCI-H2405	0.666
NCI-H1437	0.511
NCI-H661	0.572
COR-L 105	0.477
H3255	0.555
NCI-H2347	0.326
NCI-H1975	0.29
NCI-H441	0.429
NCI-H1915	0.294
NCI-H2087	0.214
NCI-H1793	0.393

Same assay, conditions: first compound 2.53 µM

Cell Line	relative viability
NCI-H358	0.127
NCI-H322M	0.537
LC-2-ad	0.894
HCC-827	0.554
CAL-12T	0.313
HCC-15	0.414
HOP-62	0.387
NCI-H460	0.0867
LU99A	0.68
NCI-H2085	1.03
A-427	0.751
NCI-H520	0.677
NCI-H838	0.481
NCI-H1792	0.421
NCI-H596	0.89
NCI-H3122	0.204

Cell Line	relative viability
BEN	0.971
NCI-H1395	1.07
201T	0.677
NCI-H1993	0.519
NCI-H1355	0.435
NCI-H2405	0.663
NCI-H1437	0.489
NCI-H661	0.555
COR-L 105	0.427
H3255	0.614
NCI-H2347	0.293
NCI-H1975	0.348
NCI-H441	0.501
NCI-H1915	0.306
NCI-H2087	0.214
NCI-H1793	0.515

Same assay, conditions: first compound 8 µM

Cell Line	relative viability
NCI-H358	0.12
NCI-H322M	0.527
LC-2-ad	0.902
HCC-827	0.477
CAL-12T	0.314
HCC-15	0.348
HOP-62	0.389
NCI-H460	0.107
LU99A	0.579
NCI-H2085	0.403
A-427	0.545
NCI-H520	0.49
NCI-H838	0.227
NCI-H1792	0.516
NCI-H596	0.919
NCI-H3122	0.251

Cell Line	relative viability
BEN	1.04
NCI-H1395	1.09
201T	0.685
NCI-H1993	0.469
NCI-H1355	0.439
NCI-H2405	0.676
NCI-H1437	0.361
NCI-H661	0.47
COR-L 105	0.353
H3255	0.544
NCI-H2347	0.326
NCI-H1975	0.306
NCI-H441	0.362
NCI-H1915	0.319
NCI-H2087	0.182
NCI-H1793	0.418

What follows are cell lines tested with CN1CCC(CC1)OC2=CC(=C(C=C2)NC3=NC=C4C(=N3)N(C(=O)N4C)C5CCCC5)OC [AZ3146] + CCNC(=O)c1noc(-c2cc(C(C)C)c(O)cc2O)c1-c1ccc(CN2CCOCC2)cc1 [Luminespib] (partner 0.01 µM) in the same assay as above. Conditions: first compound 0.08 µM.
How it was run: as §1

Cell Line	relative viability
NCI-H358	0.407
NCI-H322M	0.88
LC-2-ad	0.877
